In ChEMBL document CHEMBL1129853, “Design and biological evaluation of a series of thiophene-based 3-hydroxy-3-methylglutaryl coenzyme a reductase inhibitors” (Bioorg Med Chem Lett, 1997):

Experiments:
Rattus norvegicus [1] = test: Tested in vivo for the concentration required to produce 50% inhibition of the incorporation of [14C]acetate into cholesterol; assay type: functional
Rattus norvegicus [2] = test: Tested in vivo for the concentration required to produce relative potency of the incorporation of [14C]acetate into cholesterol (relative to compactin=1); assay type: functional
[3] = molecular target: T1, 3-hydroxy-3-methylglutaryl-coenzyme A reductase (Rattus norvegicus, UniProt P51639); test: Tested in vitro for the HMG-CoA reductase inhibitory activity in a microsomal preparation; assay type: microsomes, Microsome
T1 sequence (P51639 whole entry): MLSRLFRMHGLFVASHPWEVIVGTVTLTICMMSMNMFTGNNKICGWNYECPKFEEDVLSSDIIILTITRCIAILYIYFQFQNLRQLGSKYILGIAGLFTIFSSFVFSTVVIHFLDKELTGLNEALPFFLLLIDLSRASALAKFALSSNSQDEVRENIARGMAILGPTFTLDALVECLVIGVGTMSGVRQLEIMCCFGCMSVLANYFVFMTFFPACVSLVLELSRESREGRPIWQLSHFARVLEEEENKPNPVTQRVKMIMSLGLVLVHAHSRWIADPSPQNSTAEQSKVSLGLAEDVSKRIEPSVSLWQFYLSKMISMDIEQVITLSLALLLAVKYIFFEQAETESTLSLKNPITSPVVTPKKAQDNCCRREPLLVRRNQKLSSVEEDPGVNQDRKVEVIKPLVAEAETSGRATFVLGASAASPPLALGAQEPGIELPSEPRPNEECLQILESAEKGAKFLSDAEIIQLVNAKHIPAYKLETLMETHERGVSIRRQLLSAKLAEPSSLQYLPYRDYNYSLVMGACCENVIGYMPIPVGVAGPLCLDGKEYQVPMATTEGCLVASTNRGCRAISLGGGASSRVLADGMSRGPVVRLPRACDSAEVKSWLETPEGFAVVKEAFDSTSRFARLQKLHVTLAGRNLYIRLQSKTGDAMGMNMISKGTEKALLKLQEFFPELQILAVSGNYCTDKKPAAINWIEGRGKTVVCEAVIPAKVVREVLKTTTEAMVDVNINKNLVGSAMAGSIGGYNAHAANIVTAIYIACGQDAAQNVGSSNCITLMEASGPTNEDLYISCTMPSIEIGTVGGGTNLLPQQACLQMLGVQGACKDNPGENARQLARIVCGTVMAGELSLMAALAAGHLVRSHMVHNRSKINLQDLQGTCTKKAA

[4] = molecular target: T2, 3-hydroxy-3-methylglutaryl-coenzyme A reductase (Rattus norvegicus) (UniProt P51639); test: Tested in vitro for relative potency against HMG-CoA reductase in a microsomal preparation (relative to compactin =1); assay type: microsomes; settings: Microsome
T2 sequence (whole entry): T1 sequence (P51639 whole entry)

SMILES: Cc1sc(C(C)C)c(/C=C/[C@@H](O)C[C@@H](O)CC(=O)[O-])c1-c1ccccc1.[Na+]
- ED50 (Rattus norvegicus [1]): 0.19 mg/kg
- Relative potency (Rattus norvegicus [2]): 21
- IC50 [3]: 94 nM
- Relative potency [4]: 12

SMILES: CC(C)c1sc(-c2ccccc2)c(-c2ccccc2F)c1/C=C/[C@@H](O)C[C@@H](O)CC(=O)O
- IC50 [3]: 233 nM
- Relative potency [4]: 4.9

SMILES: CC(C)c1sc(-c2ccc(Cl)cc2)c(-c2ccc(F)cc2)c1/C=C/[C@@H](O)C[C@@H](O)CC(=O)[O-].[Na+]
- ED50 (Rattus norvegicus [1]): 0.64 mg/kg
- Relative potency (Rattus norvegicus [2]): 6.3
- IC50 [3]: 21 nM
- Relative potency [4]: 55

SMILES: CC(C)c1sc(-c2ccccc2)c(-c2cccc(F)c2)c1/C=C/[C@@H](O)C[C@@H](O)CC(=O)O
- IC50 [3]: 49 nM
- Relative potency [4]: 23

SMILES: CC(C)c1sc(-c2ccccc2)c(-c2ccc(F)cc2)c1/C=C/[C@@H](O)C[C@@H](O)CC(=O)[O-].[Na+]
- ED50 (Rattus norvegicus [1]): 0.11 mg/kg
- Relative potency (Rattus norvegicus [2]): 37
- IC50 [3]: 4.4 nM
- Relative potency [4]: 261

SMILES: CC[C@H](C)C(=O)O[C@H]1CCC=C2C=C[C@H](C)[C@H](CC[C@@H]3C[C@@H](O)CC(=O)O3)[C@H]21 [MEVASTATIN]
- ED50 (Rattus norvegicus [1]): 4.02 mg/kg
- Relative potency (Rattus norvegicus [2]): 1
- IC50 [3]: 1150 nM
- Relative potency [4]: 1

SMILES: CC(C)c1sc(C2CCCC2)c(-c2ccc(F)cc2)c1/C=C/[C@@H](O)C[C@@H](O)CC(=O)O
- IC50 [3]: 570 nM
- Relative potency [4]: 2

SMILES: COCCOCc1sc(C(C)C)c(/C=C/[C@@H](O)C[C@@H](O)CC(=O)O)c1-c1ccc(F)cc1
- IC50 [3]: 206 nM
- Relative potency [4]: 5.6

SMILES: COc1ccc(-c2c(-c3ccccc3)sc(C(C)C)c2/C=C/[C@@H](O)C[C@@H](O)CC(=O)O)cc1
- IC50 [3]: 2430 nM
- Relative potency [4]: 0.5

SMILES: CC(C)=Cc1c(-c2ccccc2)sc(C(C)C)c1/C=C/[C@@H](O)C[C@@H](O)CC(=O)O
- IC50 [3]: 1000 nM
- Relative potency [4]: 1.2

SMILES: CC(C)c1sc(-c2ccccc2)c(-c2cccs2)c1/C=C/[C@@H](O)C[C@@H](O)CC(=O)O
- IC50 [3]: 1420 nM
- Relative potency [4]: 0.8

SMILES: CC(C)c1sc(C(C)C)c(-c2ccc(F)cc2)c1/C=C/[C@@H](O)C[C@@H](O)CC(=O)[O-].[Na+]
- ED50 (Rattus norvegicus [1]): 0.08 mg/kg
- Relative potency (Rattus norvegicus [2]): 50
- IC50 [3]: 26 nM
- Relative potency [4]: 44

SMILES: CC(C)c1sc(-c2ccccc2)c(-c2ccc(-c3ccccc3)cc2)c1/C=C/[C@@H](O)C[C@@H](O)CC(=O)O
- IC50 [3]: > 10000 nM
- Relative potency [4]: < 0.1

SMILES: COc1ccc(-c2sc(C(C)C)c(/C=C/[C@@H](O)C[C@@H](O)CC(=O)[O-])c2-c2ccc(F)cc2)cc1.[Na+]
- ED50 (Rattus norvegicus [1]): 0.15 mg/kg
- Relative potency (Rattus norvegicus [2]): 27
- IC50 [3]: 6.3 nM
- Relative potency [4]: 183

SMILES: CCCCCCCCc1c(-c2ccccc2)sc(C(C)C)c1/C=C/[C@@H](O)C[C@@H](O)CC(=O)O
- IC50 [3]: > 10000 nM
- Relative potency [4]: < 0.1

SMILES: CC(C)c1sc(CO)c(-c2ccc(F)cc2)c1/C=C/[C@@H](O)C[C@@H](O)CC(=O)O
- IC50 [3]: 325 nM
- Relative potency [4]: 4

SMILES: CC[C@H](C)C(=O)O[C@H]1C[C@@H](C)C=C2C=C[C@H](C)[C@H](CC[C@@H]3C[C@@H](O)CC(=O)O3)[C@H]21 [LOVASTATIN]
- ED50 (Rattus norvegicus [1]): 0.38 mg/kg
- Relative potency (Rattus norvegicus [2]): 11
- IC50 [3]: 530 nM
- Relative potency [4]: 2.2

SMILES: CC(C)=Cc1sc(C(C)C)c(/C=C/[C@@H](O)C[C@@H](O)CC(=O)[O-])c1-c1ccc(F)cc1.[Na+]
- ED50 (Rattus norvegicus [1]): 0.11 mg/kg
- Relative potency (Rattus norvegicus [2]): 37
- IC50 [3]: 15 nM
- Relative potency [4]: 77

SMILES: Cc1ccc(-c2sc(C(C)C)c(/C=C/[C@@H](O)C[C@@H](O)CC(=O)[O-])c2-c2ccc(F)cc2)cc1.[Na+]
- ED50 (Rattus norvegicus [1]): 0.32 mg/kg
- Relative potency (Rattus norvegicus [2]): 13
- IC50 [3]: 9.7 nM
- Relative potency [4]: 119

SMILES: CC(C)c1sc(-c2ccccc2)c(-c2ccccc2)c1/C=C/[C@@H](O)C[C@@H](O)CC(=O)[O-].[Na+]
- ED50 (Rattus norvegicus [1]): 0.17 mg/kg
- Relative potency (Rattus norvegicus [2]): 24
- IC50 [3]: 26 nM
- Relative potency [4]: 44

SMILES: CC(C)c1sc(-c2ccccc2)c(C2CCCC2)c1/C=C/[C@@H](O)C[C@@H](O)CC(=O)O
- IC50 [3]: 417 nM
- Relative potency [4]: 2.8

SMILES: CC(C)c1sc(-c2ccccc2)c(-c2cccc(C(F)(F)F)c2)c1/C=C/[C@@H](O)C[C@@H](O)CC(=O)O
- IC50 [3]: 2980 nM
- Relative potency [4]: 0.4

SMILES: CCCCCCCCc1sc(C(C)C)c(/C=C/[C@@H](O)C[C@@H](O)CC(=O)O)c1-c1ccc(F)cc1
- IC50 [3]: > 10000 nM
- Relative potency [4]: < 0.1

SMILES: CC(C)c1sc(-c2ccccc2)c(C2CCCCC2)c1/C=C/[C@@H](O)C[C@@H](O)CC(=O)[O-].[Na+]
- ED50 (Rattus norvegicus [1]): 0.57 mg/kg
- Relative potency (Rattus norvegicus [2]): 7.1
- IC50 [3]: 202 nM
- Relative potency [4]: 5.7
